Results published in patent publication US11976274B2, “Methods and compositions for identifying neoantigens for use in treating and preventing cancer” (Arizona Board of Regents on Behalf of Arizona State …, priority 2019, dated 2024).

Legend:
Assay type in all cases: in vivo
4T1 cells = assay: 4T1-BALB/c mouse breast tumor model, immunization and tumor challenge; conditions: for tumor retardation: gene vaccines, three immunizations, subcutaneous 2×10^3 4T1 cells, vs mock
Experimental: BALB/c and C57BL/6 mice were from Charles River Laboratories or Jackson Laboratories. […] Tumor volumes were measured and calculated by (Length^2×Width/2) daily after the size was larger than 1 mm^3. Breeding pairs of BALB-neuT and FVB-neuN (FVB/N-Tg (MMTVneu) 202Mul) mice were obtained from Joseph Lustgarten, Mayo Clinic Arizona. Mice were monitored weekly for the tumor incidence after tumor size reached 1 mm^3. All experiments were performed in accordance with protocols approved by the Institutional Animal Care and Use Committee of Arizona State University. Statistical significance of differences was analyzed by a Student t-test.
The DNA fragments encoding FS peptides were cloned as a C-terminal fusion into the genetic immunization vectors pCMVi-UB (26) and pCMVi-LSrCOMPTT (27, 28) with the Bgl II and Hind III and mixed with 1:1 ratio as the vaccine antigen. Three adjuvants were encoded by genetic immunization vectors. The pCMVi-mGM-CSF vector expresses the adjuvant mouse granulocyte/macrophage colony-stimulating factor (mGM-CSF) under control of the human cytomegalovirus (CMV) promoter (27). […]. Vectors pCMVi-UB, pCMVi-LSrCOMPTT, pCMVi-LTA (also called pCMVi-LS-LTA-R192G) and pCMVi-LTB are available from the PSI:Biology-Materials Repository DNASU (dnasu.org) at Arizona State University. Additional adjuvants were the class A CpG 2216 single-stranded oligodeoxynucleotide obtained from Sigma and alum from Pierce.
Bullets for biolistic genetic immunization used the gold micronanoplex approach and were prepared as described (30) with the following changes. Two grams of 1-micron gold was used. Prior to addition of N-hydroxysuccinimide and N-(3-dimethylaminopropyl)-N′-ethylcarbodiimide hydrochloride, the gold was resuspended in 20 mL of a 0.1 M solution of 2-(N-morpholino) ethanesulfonic acid (MES), pH 6.0. DNA-gold micronanoplexes were prepared by combining, per bullet, 57 μL of cysteamine-gold solution with precipitated DNA (≤10 μg) that had been resuspended in ≤15 μL of water, and then vortexing for 10 min. To the DNA-cysteamine-gold was added 6 μL/bullet of a freshly made solution of PEI-micron gold (167 mg/mL in 0.1 M MES, pH 6, without NaCl). The pelleted micronanoplexes were washed with ethanol prior to resuspension in n-butanol (55 μL/bullet), followed by bullet formation under nitrogen gas.
For the three MS FS experiments, all mice (n=10 per group) were genetically immunized in the ear by Gene Gun at 8 weeks of age (2 shots/mouse, 60 ng pooled antigens plus 0.25 μg LTAB and 2.5 μg CpG2216 as the adjuvant for each shot) and boosted twice (two days apart) in three weeks with 1 μg pooled antigens plus the same adjuvants dosage. All mice were boosted again in two weeks with 50 μg KLH conjugated MS FS peptides with 50 μg CpG 2216 and 50 ul alum in total 100 ul PBS. […]

B16-F10 cells = assay: B16F10-C57BL6 mouse melanoma tumor model, genetic immunization and tumor challenge; conditions: B16F10 melanoma in C57BL6, gene gun immunization, 1×10^5 cells, vs mock/control antigen CPV 172
[1] = test system: BALB-NeuT mouse breast tumor; assay: BALB-NeuT transgenic mouse mammary cancer model, tumor free curve; conditions: Mantal-Cox test
Experimental: BALB/c and C57BL/6 mice were from Charles River Laboratories or Jackson Laboratories. For the tumor challenge, 5×10^3 4T1 cells were injected in the mammary pad at the right flank of the mice, or 1×10^5 B16F10 cells were injected subcutaneously in the right flank of the mice. Tumor volumes were measured and calculated by (Length^2×Width/2) daily after the size was larger than 1 mm^3. Breeding pairs of BALB-neuT and FVB-neuN (FVB/N-Tg (MMTVneu) 202Mul) mice were obtained from Joseph Lustgarten, Mayo Clinic Arizona. Mice were monitored weekly for the tumor incidence after tumor size reached 1 mm^3. All experiments were performed in accordance with protocols approved by the Institutional Animal Care and Use Committee of Arizona State University. Statistical significance of differences was analyzed by a Student t-test.
Mice were genetically immunized by Gene Gun at 4-6 weeks with 100 ng of antigen(s) in pCMVi vectors, boosted twice (3-4 days apart) at 9-10 weeks with 1 μg of the same antigen(s), and boosted once at 13-14 weeks with protein. Genetic immunizations included adjuvants LTAB (0.5 μg) and CpG 2216 (5 μg). Protein boosts were 50 μg of KLH conjugated FS peptides (SMC1A-1^4, n=32; RBM FS, n=22; SLAIN2 FS, n=14 and pool of three FS neoantigens, n=37). The protein boost included 50 μg CpG 2216 and 50 μl alum in 100 μl PBS as the adjuvant. […]

Sequence | tumor retardation (4T1 cells) | tumor growth (B16-F10 cells) | 4T1 tumor growth (4T1 cells; BALB/c, gene gun plus KLH-peptide boost, 5×10^3 4T1 cells, vs empty vector/KLH) | T-cell dependence of protection (4T1 cells; depletion of CD8 or CD4 T-cells in immunized BALB/c mice, 4T1) | p, tumor free curve, 3FS pool vs individual FS antigen group [1]
AVLLMCQLYQPWMCKEYYRLL [ZDHHC17 FS] | did not | – | – | – | –
TAIIGPNGSGCSGVYCHEEPQGEDSSV [mSMC1A-1^4] | – | significant retardation of tumor growth | significantly retarded the 4T1 tumor growth | CD8 T cell dependent | –
IPRMQPQASANHCQLLKVMVA [SLAIN2 FS] | conferred tumor retardation | – | – | – | 0.43
